From the kinase profiling compilation of Christmann-Franck et al. (2016)

Key:
Assay in all cases: KINOMEscan competition binding
Details in all cases: compound 10.0 µM
STK32C (human) = STK32C (human) (UniProt Q86UX6)
CDK11B (human) = CDK11B (human) (UniProt P21127)
MERTK (human) = MERTK (human) (UniProt Q12866)
EPHA2 (human) = EPHA2 (human) (UniProt P29317)
DCLK3 (human) = DCLK3 (human) (UniProt Q9C098)
MAPK13 (human) = MAPK13 (human) (UniProt O15264)
SRC (human) = SRC (human) (UniProt P12931)
ACVR1B (human) = ACVR1B (human) (UniProt P36896)
EPHA5 (human) = EPHA5 (human) (UniProt P54756)
EIF2AK2 (human) = EIF2AK2 (human) (UniProt P19525)
STK3 (human) = STK3 (human) (UniProt Q13188)
CDK19 (human) = CDK19 (human) (UniProt Q9BWU1)
SIK1 (human) = SIK1 (human) (UniProt P57059)
CHEK1 (human) = CHEK1 (human) (UniProt O14757)
ITK (human) = ITK (human) (UniProt Q08881)
[1] = system: ABL1 (human), P00519 [M351T]
MINK1 (human) = MINK1 (human) (UniProt Q8N4C8)
DAPK1 (human) = DAPK1 (human) (UniProt P53355)
PHKG2 (human) = PHKG2 (human) (UniProt P15735)
BMPR2 (human) = BMPR2 (human) (UniProt Q13873)
HCK (human) = HCK (human) (UniProt P08631)
YES1 (human) = YES1 (human) (UniProt P07947)
RIPK1 (human) = RIPK1 (human) (UniProt Q13546)
ADCK4 (human) = ADCK4 (human) (UniProt Q96D53)
MUSK (human) = MUSK (human) (UniProt O15146)
MAP2K3 (human) = MAP2K3 (human) (UniProt P46734)
AAK1 (human) = AAK1 (human) (UniProt Q2M2I8)
AKT3 (human) = AKT3 (human) (UniProt Q9Y243)
FLT3 (human) = FLT3 (human) (UniProt P36888)
CSNK1D (human) = CSNK1D (human) (UniProt P48730)
BMPR1B (human) = BMPR1B (human) (UniProt O00238)
FLT4 (human) = FLT4 (human) (UniProt P35916)
NEK1 (human) = NEK1 (human) (UniProt Q96PY6)
PRKAA2 (human) = PRKAA2 (human) (UniProt P54646)
PRKD3 (human) = PRKD3 (human) (UniProt O94806)
TEC (human) = TEC (human) (UniProt P42680)
CAMK2G (human) = CAMK2G (human) (UniProt Q13555)
MAP2K1 (human) = MAP2K1 (human) (UniProt Q02750)
MAPK10 (human) = MAPK10 (human) (UniProt P53779)
EPHA1 (human) = EPHA1 (human) (UniProt P21709)

Chain of EPHA5 (human) (P54756 whole entry, looked up): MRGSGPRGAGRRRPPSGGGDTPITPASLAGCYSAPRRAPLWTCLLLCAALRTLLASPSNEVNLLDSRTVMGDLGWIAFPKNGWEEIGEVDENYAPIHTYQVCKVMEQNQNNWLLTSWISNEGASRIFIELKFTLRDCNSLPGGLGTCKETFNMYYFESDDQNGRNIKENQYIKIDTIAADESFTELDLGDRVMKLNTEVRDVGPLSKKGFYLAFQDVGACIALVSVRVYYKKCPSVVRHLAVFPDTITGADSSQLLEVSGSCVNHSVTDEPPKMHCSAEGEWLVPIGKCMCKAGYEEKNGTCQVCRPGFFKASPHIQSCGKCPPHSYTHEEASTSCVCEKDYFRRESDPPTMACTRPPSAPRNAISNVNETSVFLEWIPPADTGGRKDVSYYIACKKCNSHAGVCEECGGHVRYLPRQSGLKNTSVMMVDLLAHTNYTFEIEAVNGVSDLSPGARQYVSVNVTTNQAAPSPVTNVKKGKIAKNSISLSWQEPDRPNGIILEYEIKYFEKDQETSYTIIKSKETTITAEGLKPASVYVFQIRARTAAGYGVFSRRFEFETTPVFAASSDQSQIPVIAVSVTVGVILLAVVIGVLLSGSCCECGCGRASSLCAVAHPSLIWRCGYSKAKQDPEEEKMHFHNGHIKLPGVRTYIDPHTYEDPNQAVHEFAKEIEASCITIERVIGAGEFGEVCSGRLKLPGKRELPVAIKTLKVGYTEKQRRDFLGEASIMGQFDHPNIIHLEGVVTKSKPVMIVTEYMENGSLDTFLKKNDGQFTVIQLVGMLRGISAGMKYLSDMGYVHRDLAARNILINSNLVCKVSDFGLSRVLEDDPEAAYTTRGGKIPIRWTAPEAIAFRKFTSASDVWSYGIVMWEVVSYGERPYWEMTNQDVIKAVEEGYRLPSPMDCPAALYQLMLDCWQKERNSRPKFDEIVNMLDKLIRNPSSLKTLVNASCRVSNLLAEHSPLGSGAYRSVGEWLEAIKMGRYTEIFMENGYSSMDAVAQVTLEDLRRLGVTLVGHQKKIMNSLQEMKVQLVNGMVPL
Chain of RIPK1 (human) (Q13546 whole entry, looked up): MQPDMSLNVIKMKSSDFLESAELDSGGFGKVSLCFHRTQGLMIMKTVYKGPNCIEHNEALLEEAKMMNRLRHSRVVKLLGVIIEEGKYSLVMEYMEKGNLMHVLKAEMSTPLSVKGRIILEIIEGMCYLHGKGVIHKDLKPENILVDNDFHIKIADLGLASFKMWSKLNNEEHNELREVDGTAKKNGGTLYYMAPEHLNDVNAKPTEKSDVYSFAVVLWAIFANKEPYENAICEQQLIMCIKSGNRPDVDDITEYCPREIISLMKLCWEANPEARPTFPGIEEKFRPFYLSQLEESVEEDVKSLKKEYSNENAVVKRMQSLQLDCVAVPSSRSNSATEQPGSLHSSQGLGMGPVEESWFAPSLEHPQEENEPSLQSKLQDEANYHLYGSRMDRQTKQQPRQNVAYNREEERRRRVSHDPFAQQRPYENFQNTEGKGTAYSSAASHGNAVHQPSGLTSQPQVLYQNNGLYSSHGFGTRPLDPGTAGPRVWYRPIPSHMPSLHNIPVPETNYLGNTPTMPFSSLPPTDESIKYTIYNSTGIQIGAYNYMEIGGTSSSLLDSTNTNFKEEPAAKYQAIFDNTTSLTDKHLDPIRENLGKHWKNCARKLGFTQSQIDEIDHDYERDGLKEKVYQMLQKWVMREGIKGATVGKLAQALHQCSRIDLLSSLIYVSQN
Chain of EPHA2 (human) (P29317 whole entry, looked up): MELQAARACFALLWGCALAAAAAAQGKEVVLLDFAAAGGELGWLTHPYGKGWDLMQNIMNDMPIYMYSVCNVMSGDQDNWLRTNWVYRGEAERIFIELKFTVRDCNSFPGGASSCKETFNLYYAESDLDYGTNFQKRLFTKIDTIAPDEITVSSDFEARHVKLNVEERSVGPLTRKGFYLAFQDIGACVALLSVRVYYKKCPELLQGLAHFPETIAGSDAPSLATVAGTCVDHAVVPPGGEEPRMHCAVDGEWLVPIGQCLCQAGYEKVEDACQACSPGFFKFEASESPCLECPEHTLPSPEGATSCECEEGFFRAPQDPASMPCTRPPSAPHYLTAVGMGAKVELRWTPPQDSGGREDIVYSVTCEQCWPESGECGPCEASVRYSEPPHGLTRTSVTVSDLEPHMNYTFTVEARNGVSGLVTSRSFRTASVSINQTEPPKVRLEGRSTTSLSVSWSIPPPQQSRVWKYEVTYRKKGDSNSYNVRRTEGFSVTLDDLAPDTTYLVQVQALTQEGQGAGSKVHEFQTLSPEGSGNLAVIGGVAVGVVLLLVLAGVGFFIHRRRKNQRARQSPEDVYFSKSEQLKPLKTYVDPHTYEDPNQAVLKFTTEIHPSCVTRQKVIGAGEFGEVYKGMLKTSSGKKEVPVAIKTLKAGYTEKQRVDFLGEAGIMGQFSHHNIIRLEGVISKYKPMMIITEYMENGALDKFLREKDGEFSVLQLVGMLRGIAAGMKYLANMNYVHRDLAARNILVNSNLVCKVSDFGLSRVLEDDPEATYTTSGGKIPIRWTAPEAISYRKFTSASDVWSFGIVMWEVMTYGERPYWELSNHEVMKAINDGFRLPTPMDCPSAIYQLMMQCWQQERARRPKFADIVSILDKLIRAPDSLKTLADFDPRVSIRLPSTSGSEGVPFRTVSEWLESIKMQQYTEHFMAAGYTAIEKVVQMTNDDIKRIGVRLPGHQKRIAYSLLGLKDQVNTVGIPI
Chain of MERTK (human) (Q12866 whole entry, looked up): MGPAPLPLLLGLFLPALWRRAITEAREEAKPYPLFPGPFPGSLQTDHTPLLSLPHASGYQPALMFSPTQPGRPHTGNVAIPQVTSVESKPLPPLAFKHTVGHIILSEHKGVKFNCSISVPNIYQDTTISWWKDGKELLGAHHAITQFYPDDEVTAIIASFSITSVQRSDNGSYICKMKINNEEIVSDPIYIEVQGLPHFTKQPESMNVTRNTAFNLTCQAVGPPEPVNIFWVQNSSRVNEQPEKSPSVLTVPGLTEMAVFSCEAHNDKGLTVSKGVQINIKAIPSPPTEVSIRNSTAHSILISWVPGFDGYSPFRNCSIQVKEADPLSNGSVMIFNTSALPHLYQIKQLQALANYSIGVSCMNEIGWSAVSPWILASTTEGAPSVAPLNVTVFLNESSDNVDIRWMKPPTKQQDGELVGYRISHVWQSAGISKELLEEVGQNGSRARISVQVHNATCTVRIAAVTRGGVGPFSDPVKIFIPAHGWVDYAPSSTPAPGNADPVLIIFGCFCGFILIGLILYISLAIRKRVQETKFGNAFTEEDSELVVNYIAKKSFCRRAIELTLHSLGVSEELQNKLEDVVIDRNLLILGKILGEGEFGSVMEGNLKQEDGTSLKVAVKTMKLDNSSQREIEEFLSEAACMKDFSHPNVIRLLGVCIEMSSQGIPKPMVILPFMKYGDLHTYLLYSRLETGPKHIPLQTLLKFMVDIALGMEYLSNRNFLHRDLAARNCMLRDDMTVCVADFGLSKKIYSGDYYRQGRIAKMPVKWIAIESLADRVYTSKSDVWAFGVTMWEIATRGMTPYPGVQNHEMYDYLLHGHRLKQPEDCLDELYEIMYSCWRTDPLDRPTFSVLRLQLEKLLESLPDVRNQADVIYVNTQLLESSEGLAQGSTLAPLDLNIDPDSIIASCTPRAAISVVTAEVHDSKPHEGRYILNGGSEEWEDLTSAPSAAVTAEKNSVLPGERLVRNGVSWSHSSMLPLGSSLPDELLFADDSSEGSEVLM
Chain of CAMK2G (human) (Q13555 whole entry, looked up): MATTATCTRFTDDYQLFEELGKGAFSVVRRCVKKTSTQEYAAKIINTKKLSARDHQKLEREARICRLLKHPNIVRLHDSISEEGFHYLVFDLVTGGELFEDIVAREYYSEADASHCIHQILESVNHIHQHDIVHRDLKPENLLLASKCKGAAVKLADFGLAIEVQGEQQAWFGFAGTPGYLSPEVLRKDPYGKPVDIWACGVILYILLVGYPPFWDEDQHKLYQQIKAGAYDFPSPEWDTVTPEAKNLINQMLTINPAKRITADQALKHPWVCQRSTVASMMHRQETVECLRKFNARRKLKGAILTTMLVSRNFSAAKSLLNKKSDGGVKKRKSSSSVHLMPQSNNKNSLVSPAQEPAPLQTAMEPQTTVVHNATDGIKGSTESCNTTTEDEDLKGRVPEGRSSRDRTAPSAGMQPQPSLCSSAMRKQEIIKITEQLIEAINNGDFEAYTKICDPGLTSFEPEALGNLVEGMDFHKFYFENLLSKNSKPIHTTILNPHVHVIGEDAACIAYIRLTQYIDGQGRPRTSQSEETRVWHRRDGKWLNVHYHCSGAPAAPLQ
Chain of ACVR1B (human) (P36896 whole entry, looked up): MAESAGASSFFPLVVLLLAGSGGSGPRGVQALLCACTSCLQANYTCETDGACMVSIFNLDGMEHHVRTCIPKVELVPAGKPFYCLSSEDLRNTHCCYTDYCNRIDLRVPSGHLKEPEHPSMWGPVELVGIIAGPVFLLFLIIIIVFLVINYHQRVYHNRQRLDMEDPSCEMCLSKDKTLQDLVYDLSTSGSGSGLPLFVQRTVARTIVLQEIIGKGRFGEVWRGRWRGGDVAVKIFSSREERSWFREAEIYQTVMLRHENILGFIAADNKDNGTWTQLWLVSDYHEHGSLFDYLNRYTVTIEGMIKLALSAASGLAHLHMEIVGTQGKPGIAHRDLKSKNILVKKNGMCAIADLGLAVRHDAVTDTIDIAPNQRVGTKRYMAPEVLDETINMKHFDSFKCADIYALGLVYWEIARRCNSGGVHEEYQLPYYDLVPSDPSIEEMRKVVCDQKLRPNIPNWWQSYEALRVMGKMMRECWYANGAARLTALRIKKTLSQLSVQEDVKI

SMILES	kinase still bound, per cent of control (STK32C (human)) [%]	kinase still bound, per cent of control (CDK11B (human)) [%]	kinase still bound, per cent of control (MERTK (human)) [%]	kinase still bound, per cent of control (EPHA2 (human)) [%]	kinase still bound, per cent of control (DCLK3 (human)) [%]	kinase still bound, per cent of control (MAPK13 (human)) [%]	kinase still bound, per cent of control (SRC (human)) [%]	kinase still bound, per cent of control (ACVR1B (human)) [%]	kinase still bound, per cent of control (EPHA5 (human)) [%]	kinase still bound, per cent of control (EIF2AK2 (human)) [%]	kinase still bound, per cent of control (STK3 (human)) [%]	kinase still bound, per cent of control (CDK19 (human)) [%]	kinase still bound, per cent of control (SIK1 (human)) [%]	kinase still bound, per cent of control (CHEK1 (human)) [%]	kinase still bound, per cent of control (ITK (human)) [%]	kinase still bound, per cent of control [1] [%]	kinase still bound, per cent of control (MINK1 (human)) [%]	kinase still bound, per cent of control (DAPK1 (human)) [%]	kinase still bound, per cent of control (PHKG2 (human)) [%]	kinase still bound, per cent of control (BMPR2 (human)) [%]	further results
O=C(NC1CC1)c1cccc(-c2ccc3c(NC(=O)C4CC4)n[nH]c3c2)c1	89	97	71	100	100	5	100	59	95	85	100	79	84	100	100	57	43	91	84	91	kinase still bound, per cent of control (HCK (human)): 100%; kinase still bound, per cent of control (YES1 (human)): 92%; kinase still bound, per cent of control (RIPK1 (human)): 0.05%; kinase still bound, per cent of control (ADCK4 (human)): 88%; kinase still bound, per cent of control (MUSK (human)): 91%; kinase still bound, per cent of control (MAP2K3 (human)): 33%; kinase still bound, per cent of control (AAK1 (human)): 10%; kinase still bound, per cent of control (AKT3 (human)): 100%; kinase still bound, per cent of control (FLT3 (human)): 63%; kinase still bound, per cent of control (CSNK1D (human)): 78%; kinase still bound, per cent of control (BMPR1B (human)): 91%; kinase still bound, per cent of control (FLT4 (human)): 100%; kinase still bound, per cent of control (NEK1 (human)): 86%; kinase still bound, per cent of control (PRKAA2 (human)): 45%; kinase still bound, per cent of control (PRKD3 (human)): 100%; kinase still bound, per cent of control (TEC (human)): 95%; kinase still bound, per cent of control (CAMK2G (human)): 89%; kinase still bound, per cent of control (MAP2K1 (human)): 100%; kinase still bound, per cent of control (MAPK10 (human)): 61%; kinase still bound, per cent of control (EPHA1 (human)): 98%
CCN1CCN(Cc2ccc(Nc3ncc4c(n3)N(C)c3ccccc3C(=O)N4C)cc2C(F)(F)F)CC1	100	99	48	83	68	100	2	100	100	95	8.1	95	27	57	100	0.65	68	65	47	91	kinase still bound, per cent of control (HCK (human)): 24%; kinase still bound, per cent of control (YES1 (human)): 6.6%; kinase still bound, per cent of control (RIPK1 (human)): 24%; kinase still bound, per cent of control (ADCK4 (human)): 57%; kinase still bound, per cent of control (MUSK (human)): 100%; kinase still bound, per cent of control (MAP2K3 (human)): 74%; kinase still bound, per cent of control (AAK1 (human)): 36%; kinase still bound, per cent of control (AKT3 (human)): 100%; kinase still bound, per cent of control (FLT3 (human)): 100%; kinase still bound, per cent of control (CSNK1D (human)): 32%; kinase still bound, per cent of control (BMPR1B (human)): 53%; kinase still bound, per cent of control (FLT4 (human)): 100%; kinase still bound, per cent of control (NEK1 (human)): 66%; kinase still bound, per cent of control (PRKAA2 (human)): 5%; kinase still bound, per cent of control (PRKD3 (human)): 8%; kinase still bound, per cent of control (TEC (human)): 99%; kinase still bound, per cent of control (CAMK2G (human)): 81%; kinase still bound, per cent of control (MAP2K1 (human)): 86%; kinase still bound, per cent of control (MAPK10 (human)): 100%; kinase still bound, per cent of control (EPHA1 (human)): 61%
